The target of one assay is T1, YANK3 (Homo sapiens, UniProt Q86UX6).
T1 construct: expressed in transfected cells; host or cells: MCF7 cells, Lipofectamine transfection, anti-HA immunoprecipitation
Put plainly: In vitro kinase assay: inhibition of YANK3 phosphorylation (IP kinase, [γ-32P]ATP, autoradiography). On the set-up: dose or concentration left out as unconfirmed. To be noted: MCF7 cells treated with each compound at 37° C. for 1 h; anti-HA IP, kinase reaction 30° C. 30 min. It counts as biochemical. Here is the method:
Transduction was performed to overexpress YANK3-HA and YB1-HA genes in cells. Lipofectamine reagent (Invitrogen) was used for gene introgression. When cells were grown to a confluency of 60% in a culture dish, human YANK3-HA and YB1-HA genes were introduced into MCF7 cells. After 48 h, the gene-transfected cells were used for experiments. All cultured cells were harvested, lysed in a lysis buffer (1×RIPA buffer 1 mL, 1 mM PMSF, 1 mg/mL aprotinin, 1 mg/mL leupeptin, 2 mM DTT) for 30 min, and centrifuged at 15,000 rpm and 4° C. for 30 min. The supernatant was collected and its total protein content was quantified by the Bradford method. After YB1-HA gene introgression, the MCF7 cells were treated with each compound […] at 37° C. for 1 h. 1 μg of anti-HA antibody was cultured with […] of protein at 4° C. for 15 h, 20 μL of protein A/G-Sepharose was added thereto, followed by culture for another 2 h. The culture was centrifuged to precipitate the protein A/G-Sepharose, washed with IP kinase buffer (50 mM HEPES, pH 7.5, 10 mM MgCl2, 1 mM dithiothreitol, 2.5 mM EGTA, 1 mM NaF, 0.1 mM Na3VO4), and sufficiently mixed with 20 μL of IP kinase buffer. The kinase reaction was initiated by the addition of […] of [γ-^32P]ATP to 40 μL of IP kinase buffer. The reaction was allowed to proceed at 30° C. for 30 min. After addition of 5 μL of 2×SDS sample buffer, the reaction was quenched by boiling for 5 min, which was confirmed by SDS-PAGE electrophoresis and autoradiography.

Assay [1] concerns YANK-expressed cells (STK32C/MCF7 cell). Put plainly: Inhibition of cell proliferation (MCF7, STK32C/MCF7 cells, 96-well, read at 450 nm). It counts as cell-based. As to conditions: 24 h after addition of compound; FIGS. 3 to 6. Here is the method: MCF7, STK32C/MCF7 cell (1×10^4/well) culture was plated in each well of a 96-well plate until it reached a final volume of 100 μl. After 24 h, the compounds at given concentrations were added. 24 h after the addition, 10 μl of an analytical reagent was plated in each well without bubbling. The reaction was allowed to proceed under basic culture conditions for 30 min to 1 h and the inhibitions of cell proliferation were measured at 450 nm.
FIGS. 3 to 6 show concentration-dependent inhibitions of proliferation of the YANK-expressed cells by treatment with the phenol derivatives of Formulae 7, 9, 13, and 32 (corresponding to Compound 34 in FIG. 2), respectively.

T1 sequence (Q86UX6 whole entry): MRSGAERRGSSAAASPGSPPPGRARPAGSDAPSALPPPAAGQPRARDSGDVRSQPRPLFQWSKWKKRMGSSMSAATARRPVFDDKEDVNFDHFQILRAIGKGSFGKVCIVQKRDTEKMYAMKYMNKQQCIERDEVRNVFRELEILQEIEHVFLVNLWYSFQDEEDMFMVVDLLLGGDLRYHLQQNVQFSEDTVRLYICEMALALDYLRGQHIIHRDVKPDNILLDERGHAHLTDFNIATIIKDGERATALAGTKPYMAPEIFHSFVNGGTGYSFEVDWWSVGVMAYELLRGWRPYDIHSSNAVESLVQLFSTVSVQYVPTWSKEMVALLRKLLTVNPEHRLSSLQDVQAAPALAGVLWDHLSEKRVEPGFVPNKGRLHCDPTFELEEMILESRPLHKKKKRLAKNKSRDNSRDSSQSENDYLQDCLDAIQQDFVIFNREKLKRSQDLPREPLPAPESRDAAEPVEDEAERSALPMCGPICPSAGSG

`Oc1ccc(-c2ccc(Cl)cc2)cc1-c1cc2cc(Cl)ccc2[nH]1` [Formula 16, 4′-Chloro-3-(5-chloro-1H-indol-2-yl)biphenyl-4-ol]: the “Inhibition, % (inhibitions (%) of YANK3 phosphorylation)” value (shortened to “Inhibition, %”) at YANK3 worked out at 125%.

For `COc1ccc(-c2ccc(O)c(-c3cc4ccccc4[nH]3)c2)cc1` [Formula 11, 3-(1H-Indol-2-yl)-4′-methoxybiphenyl-4-ol], the “Inhibition, %” value at YANK3 was found to be 163%.

As for `Oc1ccc(Br)cc1-c1cc2cc(F)ccc2[nH]1` [Formula 7, 4-Bromo-2-(5-fluoro-1H-indol-2-yl)phenol], the “concentration-dependent inhibition of proliferation of YANK-expressed cells” value (“concentration-dependent inhibition” for short) in assay [1] is on record as “inhibited the proliferation of the YANK-expressed cells with high efficacy with increasing concentration”. The “Inhibition, %” value at YANK3 is 74%.

In the case of `N=C(N)c1ccc2[nH]c(-c3cc(-c4cccs4)ccc3O)cc2c1` [Compound 33, 2-(2-Hydroxy-5-(thiophen-2-yl)phenyl)-1H-indole-5-carboximidamide], the “Inhibition, %” value on YANK3 came to 30%.

For the compound `N=C(N)c1ccc2[nH]c(-c3cc(-c4ccc(Cl)cc4)ccc3O)cc2c1` [Compound 32, 2-(4′-Chloro-4-hydroxybiphenyl-3-yl)-1H-indole-5-carboximidamide], in assay [1], the “concentration-dependent inhibition” value is “inhibited the proliferation of the YANK-expressed cells with high efficacy with increasing concentration”. Also, on YANK3, the “Inhibition, %” value came to 65%.

Take `N#Cc1ccc2[nH]c(-c3cc(Br)ccc3O)cc2c1` [Formula 9, 2-(5-Bromo-2-hydroxyphenyl)-1H-indole-5-carbonitrile]: the “concentration-dependent inhibition” value in assay [1] was “inhibited the proliferation of the YANK-expressed cells with high efficacy with increasing concentration”. In addition, the “Inhibition, %” value on YANK3 is listed as 144%.

As to `Oc1ccc(-c2ccc(Cl)cc2)cc1-c1cc2cc(F)ccc2[nH]1` [Formula 13], in assay [1], the “concentration-dependent inhibition” value is “inhibited the proliferation of the YANK-expressed cells with high efficacy with increasing concentration”. On YANK3, the “Inhibition, %” value is on record as 93%.

These data come from patent US10155753B2, “4-substituted-2-(5-substituted-1H-indol-2-yl)phenol derivatives, methods for preparing the phenol derivatives and pharmaceutical compositions for inhibiting cell proliferation and migration including the phenol derivatives” (KOREA UNIVERSITY RESEARCH AND BUSINESS FOUNDATION, priority 2015, dated 2018).
